Assay results published in the supplement of paper PMC10307832.

Tests used:
Assay in all cases: relative viability (nuclei count vs DMSO), 5 days (fraction); higher = more cells survive
[1] = compound: C1=CC2=NC=CN=C2C=C1/C=C/3\C(=O)NC(=O)S3 + Cc1cc(Nc2cc(N3CCN(C)CC3)nc(Sc3ccc(NC(=O)C4CC4)cc3)n2)n[nH]1 [Tozasertib] (partner 0.1 µM)
How it was run: (§1)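 Lung cancer cell lines in 1536-well plates got either a single drug or a fixed anchor-drug dose together with five library-drug doses (not always all listed) in √10 steps, by pin tool, on the day after seeding. Nuclei were counted after 5 days, and relative viability is the treated-to-vehicle ratio of nuclei counts. Values are medians of duplicate plates.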

[2] = compound: C1=CC2=NC=CN=C2C=C1/C=C/3\C(=O)NC(=O)S3 + O=C(c1cc(Cc2n[nH]c(=O)c3ccccc23)ccc1F)N1CCN(C(=O)C2CC2)CC1 [Olaparib] (partner 8 µM)
How it was run: as §1

[3] = compound: C1=CC2=NC=CN=C2C=C1/C=C/3\C(=O)NC(=O)S3 + CS(=O)(=O)CCNCc1ccc(-c2ccc3ncnc(Nc4ccc(OCc5cccc(F)c5)c(Cl)c4)c3c2)o1 [Lapatinib] (partner 2 µM)
How it was run: as §1

[4] = compound: C1=CC2=NC=CN=C2C=C1/C=C/3\C(=O)NC(=O)S3 + CC(C)C[C@H](NC(=O)[C@H](Cc1ccccc1)NC(=O)c1cnccn1)B(O)O [Bortezomib] (partner 0.002 µM)
How it was run: as §1

Cell Line | relative viability ([1]; first compound 0.02 µM) | relative viability ([1]; first compound 0.06325 µM) | relative viability ([1]; first compound 0.2 µM) | relative viability ([1]; first compound 0.6325 µM) | relative viability ([1]; first compound 2 µM) | relative viability ([2]; first compound 0.02 µM) | relative viability ([2]; first compound 0.06325 µM) | relative viability ([2]; first compound 0.2 µM) | relative viability ([2]; first compound 0.6325 µM) | relative viability ([2]; first compound 2 µM) | relative viability ([3]; first compound 0.02 µM) | relative viability ([3]; first compound 0.06325 µM) | relative viability ([3]; first compound 0.2 µM) | relative viability ([3]; first compound 0.6325 µM) | relative viability ([3]; first compound 2 µM) | relative viability ([4]; first compound 0.02 µM) | relative viability ([4]; first compound 0.06325 µM) | relative viability ([4]; first compound 0.2 µM) | relative viability ([4]; first compound 0.6325 µM) | relative viability ([4]; first compound 2 µM)
NCI-H522 | 0.64 | 0.504 | 0.641 | 0.542 | 0.549 | 0.593 | 0.561 | 0.723 | 0.677 | 0.545 |  |  |  |  |  |  |  |  |  | 
HCC-15 | 0.374 | 0.333 | 0.303 | 0.393 | 0.49 | 0.699 | 0.612 | 0.71 | 0.675 | 0.634 | 0.84 | 0.87 | 0.881 | 0.792 | 0.84 | 1.01 | 0.995 | 1.04 | 0.99 | 0.966
A-427 | 0.209 | 0.241 | 0.198 | 0.198 | 0.228 | 0.71 | 0.83 | 0.716 | 0.716 | 0.634 | 1.03 | 1.04 | 1.07 | 0.994 | 1.08 | 0.991 | 1.1 | 1.04 | 0.915 | 0.965
NCI-H2228 | 0.302 | 0.228 | 0.234 | 0.21 | 0.221 | 0.666 | 0.599 | 0.616 | 0.654 | 0.649 | 0.946 | 1.15 | 0.97 | 0.903 | 0.932 | 0.948 | 0.881 | 1.23 | 1.06 | 0.82
NCI-H1734 | 0.256 | 0.262 | 0.317 | 0.248 | 0.278 | 0.613 |  | 0.673 | 0.562 | 0.226 | 1.02 |  | 1.11 | 0.999 | 0.756 | 0.761 |  | 1 | 0.919 | 0.747
PC-14 | 0.579 | 0.754 | 0.571 | 0.546 | 0.572 | 0.25 | 0.363 | 0.263 | 0.227 | 0.277 | 0.326 | 0.316 | 0.284 | 0.348 | 0.24 | 0.726 | 0.816 | 0.81 | 0.882 | 0.81
NCI-H1915 | 0.452 | 0.48 | 0.41 | 0.418 | 0.428 | 0.25 | 0.248 | 0.281 | 0.249 | 0.258 | 1.01 | 1.1 | 1.02 | 0.928 | 0.971 | 0.985 | 1.05 | 1.05 | 0.99 | 1
NCI-H1666 | 0.591 | 0.617 | 0.575 | 0.674 | 0.603 | 0.746 | 0.713 | 0.709 | 0.695 | 0.728 | 0.468 | 0.51 | 0.693 | 0.643 | 0.499 | 0.834 | 0.854 | 1.06 | 0.649 | 0.673
HCC-366 | 0.114 |  | 0.135 | 0.108 | 0.123 | 0.318 |  | 0.374 | 0.351 | 0.373 | 0.999 | 0.927 | 1.03 | 0.905 | 1.04 | 1 | 1.02 | 1.05 | 1.06 | 1.01
SK-MES-1 | 0.894 | 0.884 | 0.998 | 0.965 | 0.934 | 0.677 | 0.793 | 0.846 | 0.796 | 0.657 | 0.374 | 0.656 | 0.486 | 0.397 | 0.406 |  |  |  |  | 
SW 1573 | 0.192 | 0.201 | 0.183 | 0.183 | 0.204 | 0.501 | 0.65 | 0.434 | 0.405 | 0.387 | 1.09 | 1.36 | 0.982 | 0.928 | 0.978 | 0.996 | 1.21 | 1.17 | 0.835 | 0.95
NCI-H661 | 0.389 | 0.368 | 0.352 | 0.335 | 0.374 | 0.682 | 0.733 | 0.733 | 0.746 | 0.715 | 0.46 | 0.495 | 0.464 | 0.45 | 0.39 | 0.925 | 0.614 | 0.812 | 0.751 | 0.95
PC-3 [JPC-3] | 0.811 | 0.811 | 0.905 | 0.913 | 0.869 | 1.07 | 1.18 | 1.11 | 1.18 | 1.13 | 0.481 | 0.559 | 0.454 | 0.439 | 0.441 | 0.735 | 0.853 | 0.879 | 0.851 | 0.852
NCI-H1623 | 0.405 | 0.413 | 0.473 | 0.403 | 0.38 |  |  |  |  |  |  |  |  |  |  |  |  |  |  | 
Calu-6 |  |  |  |  |  | 0.602 | 0.621 | 0.597 | 0.592 | 0.568 | 1.05 | 1.14 | 0.97 | 1.06 | 1 | 1.03 | 1.1 | 1.22 | 1.1 | 0.98
LC-2-ad | 0.444 | 0.353 | 0.46 | 0.406 | 0.449 | 0.63 | 0.811 | 0.692 | 0.611 | 0.344 | 0.927 | 1.04 | 0.949 | 0.924 | 0.797 | 0.964 | 1.02 | 1.09 | 0.943 | 0.829
CAL-12T | 0.289 | 0.383 | 0.346 | 0.313 | 0.331 | 0.64 | 0.784 | 0.692 | 0.779 | 0.672 | 0.512 | 0.708 | 0.659 | 0.629 | 0.751 | 1.05 | 1.06 | 0.921 | 0.97 | 0.966
RERF-LC-KJ | 0.443 | 0.613 | 0.592 | 0.452 | 0.46 | 0.893 | 0.937 | 1 | 0.888 | 0.939 | 0.729 | 0.923 | 0.842 | 0.759 | 0.689 | 1.25 | 1.17 | 1.23 | 1.14 | 1.11
